Earlier results on 4 compounds are cited in patent US4878891A, “Method for eradicating infectious biological contaminants in body tissues” (Baylor Research Foundation, priority 1987, dated 1989).

Data set [1] has as its system tumor cells.
Data set [2] deals with cutaneous T-cell lymphoma. To be noted: oral; blood fraction exposed to ultraviolet A.
For data set [3], the system named is viral diseases.
The subject of data set [4] is tumor. To be noted: injected; several types of tumor induced in mice.
Data set [5] relates to malignant tumors. To be noted: patients given large doses; ultraviolet light.

On to `Cc1cn([C@H]2C[C@H](N=[N+]=[N-])[C@@H](CO)O2)c(=O)[nH]c1=O` [3-deoxy-3'-azidothymidine (AZT), 3-deoxy-3'-azidothymidine], for which the “preventing the proliferation of tumor cells” value in data set [1] was “totally ineffective”.

As to `COc1c2occc2cc2ccc(=O)oc12` [8-methoxypsoralen], in data set [2], the “control of cutaneous T-cell lymphoma activity” value is given as “could be controlled”. Consider `CC[C@]1(O)C[C@H]2CN(CCc3c([nH]c4ccccc34)[C@@](C(=O)OC)(c3cc4c(cc3OC)N(C=O)[C@H]3[C@@](O)(C(=O)OC)[C@H](OC(C)=O)[C@]5(CC)C=CCN6CC[C@]43[C@@H]65)C2)C1` [Vincristine], for which the “treatment of viral diseases” value in data set [3] is “ineffective”. As for `CC1=C(CCC(=O)O)c2cc3[nH]c(cc4nc(cc5[nH]c(cc1n2)c(C)c5C(C)O)C(C)=C4C(C)O)c(C)c3CCC(=O)O` (centres unmarked) [hematoporphyrin], the localization in tumors result in data set [4] was “localized and fluoresced in several types of tumor”. Moreover, the “red fluorescence in malignant tumors” value in data set [5] was “red fluorescence”.
